“Also recorded” adds a separate entry of the source. Structures can show the parent of a compound that is named as a salt.
Experiments:
horn buds [1] = assay: General conclusion on chemical disbudding agents: efficacy; assay type: in vivo, calves
Protocol: (§1) A study was performed to test the disbudding efficacy from the administration to horn buds of mepacrine dihydrochloride, compared to a conventional hot iron disbudding method. The mepacrine dihydrochloride was administered as compositions comprising mepacrine dihydrochloride suspended in water. The compositions were prepared by dispersing mepacrine dihydrochloride powder into water for injection. Immediately before administration the compositions were shaken to re-suspend the mepacrine dihydrochloride.
(§2) A study on calves was performed to test the disbudding efficacy from the administration to horn buds of chloroquine diphosphate and polidocanol.
(§3) Sixteen calves (4 to 6 days old) obtained from commercial dairy farms were used in this study. The calves were randomly assigned to receive one of the four formulations (Table 3). Animals were gently restrained and the hair around the horn bud region was clipped. The formulations (0.3 to 0.5 mL) were then injected subcutaneously under the right horn bud or around the right horn bud using a McLintock syringe and needle (22G 11/64″, 0.71*4.3 mm) which delivered 0.1 mL on each injection. The left horn bud acted as control. The details of the treatment are given in the below Table 3. […] The differences in the growth rate of the right and left horn buds were determined by measuring the height of the horn buds at regular intervals. Photos of the horn buds were taken at the same time. Calves will be euthanized after 4 months by intravenous injection of pentobarbitone sodium (100 mg/kg bodyweight) for gross pathology and histopathology of horn buds.

horn buds [2] = assay: Example 2: disbudding efficacy of chloroquine diphosphate and polidocanol, 90 days observation; assay type: in vivo, calves; conditions: for Horn growth / Scurs / Success rate / No horn growth: 90 days
Protocol: as §2
The chloroquine diphosphate was administered as compositions comprising chloroquine diphosphate suspended in water. The compositions were prepared by dispersing chloroquine diphosphate powder into water for injection. Immediately before administration the compositions were shaken to re-suspend the chloroquine diphosphate.
(§4) The polidocanol was administered either as undiluted polidocanol when administered at 100% concentration, or as a diluted solution with water for the 90%, 50% and 10% concentration groups.
The animals in the study were divided into multiple groups. Groups 1 and 2 were administered saline solution (0.9% sodium chloride) administered as a single dose for group 1, and as divided doses for group 2. Each divided dose comprised 5 doses of 0.1 mL administered around the horn bud.
Groups 3 and 4 were administered chloroquine diphosphate at either 100 mg/ml or 300 mg/mL, and groups 5 to 8 were administered polidocanol are different concentrations ranging from 100% to 10% w/v.

[3] = Example 3: pain related behaviors and adverse effects following injection; assay type: in vivo, calves (4 to 6 days old)
Protocol: as §3

horn buds [4] = assay: Example 3: growth rate of horn buds / efficacy of mepacrine and eugenol formulations; assay type: in vivo, calves (4 to 6 days old); conditions: for Height of right horn bud on 40th day / Height of right horn bud on 80th day / Horn growth rate (height of horn buds on 80th day minus height on 40th day), right horn bud: individual calf
Protocol: as §3, with “The formulations (0.3 to 0.5 mL) were then injected subcutaneously under the right horn bud or around the right horn bud using a McLintock syringe and needle (22G 11/64″, 0.71*4.3 mm) which delivered 0.1 mL on each injection.” left out

horn-bud tissue = conditions: injected under the horn bud; Sutherland et al 2019; cited from earlier work
horn buds [5] = assay: Example 1: disbudding efficacy of mepacrine dihydrochloride suspended in water, 90 days observation; assay type: in vivo, calves (bovine dairy calves, 7 days of age); conditions: for Horn growth / Scurs / Success rate / No horn growth: 10 animals treated, 90 days
Protocol: as §1
The animals in the study (calves) were divided into multiple groups. Groups 1 to 4 were administered a single dose of 0.5 mL of mepacrine dihydrochloride composition, with each being administered a composition with a different concentration of mepacrine dihydrochloride, ranging from 50 mg/mL to 400 mg/mL.
Groups 5 to 8 were administered a divided dose of 0.5 mL of mepacrine dihydrochloride composition, with each being administered a composition with a different concentration of mepacrine dihydrochloride, ranging from 50 mg/mL to 400 mg/mL. Each divided dose comprised 5 doses of 0.1 mL administered around the horn bud.
(§5) The administration of the mepacrine dihydrochloride was performed by injecting the mepacrine dihydrochloride composition using a McLintock pre-set syringe configured to administer up to 0.5 mL. The single dose administration for groups 1 to 4 was performed by injecting the composition directly into the horn bud. The divided dose administration for groups 5 to 8 was performed by injecting the smaller doses to the area immediately around the horn bud. The animals in control group 9 were first treated with a 2% lignocaine injection as a cornual nerve block and then disbudded using a conventional hot-iron.
The left horn bud on each animal was left untreated as a control.
(§6) The animals in the study were bovine dairy calves, progressively enrolled in the study and treated at 7 days of age.
The success rate is based on the proportion of treated horn buds that had no subsequent horn growth or presence of a scur. A horn scur is a distorted horn that is not attached to the skull. […] The untreated horn bud on every animal developed into a horn.

[6] = Example 1: pain response and procedure time; assay type: in vivo, calves (bovine dairy calves, 7 days of age)
Protocol: as §1, §5, §6
The administration procedure of disbudding by administering mepacrine was less than 1 minute for each animal, compared to 5-10 minutes for the animals disbudded with the hot-iron.

horn bud = conditions: high concentrations injected into the horn bud; Koger 1976; cited from earlier work
[7] = prior trials; cited from earlier work
[8] = Example 2: viscosity of the polidocanol compositions (observation); assay type: physicochemical; conditions: eg. 90%
Protocol: as §4

horn bud tissue = conditions: as a cryogenic fluid; cited from earlier work
[9] = 100 mg/mL, single injection (0.5 mL), 3 animals treated
[10] = 300 mg/ml, single injection (0.5 mL), 4 animals treated
[11] = 50 mg/mL, multiple injections (5 × 0.1 mL)
[12] = 50 mg/mL, single injection (0.5 mL)
[13] = 100 mg/mL, multiple injections (5 × 0.1 mL)
[14] = 100 mg/mL, single injection (0.5 mL)
[15] = 200 mg/mL, multiple injections (5 × 0.1 mL)
[16] = 200 mg/mL, single injection (0.5 mL)
[17] = 400 mg/mL, multiple injections (5 × 0.1 mL)
[18] = 400 mg/mL, single injection (0.5 mL)
[19] = 50% polidocanol (0.5 mL), 4 animals treated
[20] = 90% polidocanol (0.5 mL), 4 animals treated
[21] = 100% polidocanol (0.5 mL), 1 animal treated

With `CCN(CC)CCCC(C)Nc1ccnc2cc(Cl)ccc12` (stereo not drawn) [Chloroquine diphosphate] the “Function as chemical disbudding agents” value (horn buds [1]) was “effective chemical disbudding agents”, the Horn growth (horn buds [2]; [9]) was 2 and the Scurs (horn buds [2]; [9]) was 1. The Success rate (horn buds [2]; [9]) was 0%, the “Disbudding success (in words)” value (horn buds [2]; 300 mg/mL) was “some success” and the “Horn growth outcome (in words)” value (horn buds [2]; 300 mg/mL) was “half the animals having no horn growth at all, and the other have having only scurs forming”. The No horn growth (horn buds [2]; [10]) was 2, the Scurs (horn buds [2]; [10]) was 2 and the Success rate (horn buds [2]; [10]) was 50%.
With `C=CCc1ccc(O)c(OC)c1` [Eugenol] the “Character and course of the swelling” value ([3]; following the injection) was “painless to touch and resolved after few days”, the “Swelling around the horn buds” value ([3]; following the injection) was “Swelling around the horn buds was observed; also recorded: Painless swelling at site of injection” and the “Swelling and scars at the site of injection” value ([3]; main finding 4) was “slight swelling and scars at the site of injection”. For the same compound, the “Scars and depression at the site of injection” value ([3]; site of injection) was “scars and depression were seen at the site of injection”, the “Height of right horn bud on 40th day” value (horn buds [4]; 0.2 mL under the horn bud) was “(5-5) mm” and the “Height of right horn bud on 80th day” value (horn buds [4]; 0.2 mL under the horn bud) was “(5-5) mm”. The “Horn growth rate (height of horn buds on 80th day minus height on 40th day), right horn bud” value (horn buds [4]; 0.2 mL under the horn bud) was 0 mm, the “Height of right horn bud on 40th day” value (horn buds [4]; 0.3 mL under the horn bud) was “(8-8) mm” and the “Height of right horn bud on 80th day” value (horn buds [4]; 0.3 mL under the horn bud) was “(8-8) mm”. The “Horn growth rate (height of horn buds on 80th day minus height on 40th day), right horn bud” value (horn buds [4]; 0.3 mL under the horn bud) was 0 mm, the “Height of right horn bud on 40th day” value (horn buds [4]; 0.4 mL around the horn bud) was 17 mm and the “Height of right horn bud on 80th day” value (horn buds [4]; 0.4 mL around the horn bud) was 19 mm. For the same compound, the “Horn growth rate (height of horn buds on 80th day minus height on 40th day), right horn bud” value (horn buds [4]; 0.4 mL around the horn bud) was 2mm, the “Height of right horn bud on 40th day” value (horn buds [4]; 0.5 mL around the horn bud) was 8 mm and the “Height of right horn bud on 80th day” value (horn buds [4]; 0.5 mL around the horn bud) was 10 mm. For the same compound, the “Horn growth rate (height of horn buds on 80th day minus height on 40th day), right horn bud” value (horn buds [4]; 0.5 mL around the horn bud) was 2 mm, the “Height of right horn bud on 40th day” value (horn buds [4]; 0.5 mL under the horn bud) was 14 mm and the “Height of right horn bud on 80th day” value (horn buds [4]; 0.5 mL under the horn bud) was 22 mm. For the same compound, the “Horn growth rate (height of horn buds on 80th day minus height on 40th day), right horn bud” value (horn buds [4]; 0.5 mL under the horn bud) was 8 mm, the “Effective (number of animals), subjective assessment of efficacy” value (horn buds [4]; N = 5 (aqueous mepacrine), 5 (eugenol), 2 (20:80), 3 (80:20)) was 3 and the “Ineffective (number of animals), subjective assessment of efficacy” value (horn buds [4]; N = 5 (aqueous mepacrine; around the horn bud), 5 (eugenol), 3 (80:20; around the horn bud)) was 2. The “Ineffective, of these around the horn bud (number of animals)” value (horn buds [4]; eugenol, N = 5, around the horn bud) was 1 and the Disbudding efficacy (horn-bud tissue) was “relatively ineffective, delaying rather preventing horn growth in many cases”.
`CCN(CC)CCCC(C)Nc1c2ccc(Cl)cc2nc2ccc(OC)cc12` (stereo not drawn) [Mepacrine dihydrochloride] gave a Horn growth (horn buds [5]; [11]) of 9, a Scurs (horn buds [5]; [11]) of 1 and a Success rate (horn buds [5]; [11]) of 0%. The Horn growth (horn buds [5]; [12]) was 7, the No horn growth (horn buds [5]; [12]) was 3 and the Success rate (horn buds [5]; [12]) was 30%. The Horn growth (horn buds [5]; [13]) was 2, the No horn growth (horn buds [5]; [13]) was 5 and the Scurs (horn buds [5]; [13]) was 3. For the same compound, the Success rate (horn buds [5]; [13]) was 50%, the Horn growth (horn buds [5]; [14]) was 7 and the No horn growth (horn buds [5]; [14]) was 3. For the same compound, the Success rate (horn buds [5]; [14]) was 30%, the No horn growth (horn buds [5]; [15]) was 9 and the Scurs (horn buds [5]; [15]) was 1. The Success rate (horn buds [5]; [15]) was 90%, the Horn growth (horn buds [5]; [16]) was 1 and the No horn growth (horn buds [5]; [16]) was 8. It also gave a Scurs (horn buds [5]; [16]) of 1, a Success rate (horn buds [5]; [16]) of 80% and a Horn growth (horn buds [5]; [17]) of 1. The No horn growth (horn buds [5]; [17]) was 7, the Scurs (horn buds [5]; [17]) was 2 and the Success rate (horn buds [5]; [17]) was 70%. For the same compound, the No horn growth (horn buds [5]; [18]) was 8, the Scurs (horn buds [5]; [18]) was 2 and the Success rate (horn buds [5]; [18]) was 80%. For the same compound, the “Success rate (in words)” value (horn buds [5]; 0.5 mL of 200 mg/mL and 400 mg/L (so in the source), single injection and divided dose) was “high success rates”, the “Success rate by concentration (in words)” value (horn buds [5]; 200 and 400 mg/mL vs 50 and 100 mg/mL) was “higher success rate in the higher concentration groups of 200 and 400 mg/mL” and the “Advantage of splitting the dose into multiple injections” value (horn buds [5]; single vs multiple injections) was “no noticeable advantage”. The “Function as chemical disbudding agents” value (horn buds [1]) was “effective chemical disbudding agents”, the Pain response ([6]; after mepacrine disbudding treatment) was “very little pain response” and the “Discomfort and pain reactions/behaviour” value ([6]; during administration) was “very little discomfort during administration and showed no pain reactions/behaviour”. The “Discomfort / pain activity during and after injections” value ([6]; during injections and after completion) was “discomfort during the injections and no subsequent pain activity after completion of the injections”.
For `[Ca+2].[Cl-].[Cl-]` [calcium chloride], the Inflammation (horn bud) is listed as “significant inflammation” and the “Necrosis of the tissue” value (horn bud) is listed as “causing necrosis of the tissue”.
In the case of `[Na+].[OH-]` [caustic soda], the Adverse effects [7] is given as “can lead to blindness of the treated animals”.
For Polidocanol, the “Viscosity of the higher concentration compositions” value [8] was “highly viscous”, the “Function as chemical disbudding agents” value (horn buds [1]) was “effective chemical disbudding agents” and the No horn growth (horn buds [2]; 10% polidocanol (0.5 mL), 1 animal treated) was 1. For the same compound, the Horn growth (horn buds [2]; [19]) was 3, the Scurs (horn buds [2]; [19]) was 1 and the Success rate (horn buds [2]; [19]) was 0%. It also gave a Horn growth (horn buds [2]; [20]) of 1, a No horn growth (horn buds [2]; [20]) of 1 and a Scurs (horn buds [2]; [20]) of 2. The Success rate (horn buds [2]; [20]) was 25%, the “Disbudding success (in words)” value (horn buds [2]; 100% concentration and 10% concentration) was “successful” and the No horn growth (horn buds [2]; [21]) was 1. The Success rate (horn buds [2]; [21]) was 100% and the “Disbudding success (in words)” value (horn buds [2]; other concentrations (90%, 50%)) was “less successful”.
In the case of liquid nitrogen, the “Destruction of horn bud tissue” value (horn bud tissue) is given as “almost entirely ineffective”.
